A short description of this assay: Inhibition of VEGFR2 in HUVEC assessed as inhibition of VEGF-induced tube formation incubated for 8 hrs by inverted microscopic method.

In the case of `C/C=C(\C)C(=O)O[C@@H]1C2=C(C)C(=O)N[C@]2(O)C[C@@]2(C)O[C@@H]2CC[C@@]2(C)O[C@H]12`, the IC50 (as a rule, the midpoint of a concentration-inhibition curve) was found to be 40.4 µM.

These data come from BindingDB's records for doi:10.1021/acs.jnatprod.9b00648 (Seoul National University, 2019).
